The values that follow come from US12312370B2, “Immunoproteasome inhibitors” (Principia Biopharma Inc., priority 2017, dated 2025).

As a reminder, the IC50 is the midpoint of a concentration-inhibition curve.

SMILES strings stand for the structures.

Holding throughout (format): biochemical
Test [1] has as its target immunoproteasome LPM2/β1i subunit (Homo sapiens, UniProt P28065). Put plainly: Caliper-based proteasome enzymatic activity assay, LMP2. Conditions: human recombinant immunoproteasome 0.3 nM, FAM-labeled peptide substrate 1 μM, rt 2 h.
In test [2] the target is constitutive proteasome β5c unit (Homo sapiens, UniProt P28074). Put plainly: Caliper-based proteasome enzymatic activity assay, β5c. The conditions noted are these: human recombinant constitutive proteasome 0.3 nM, FAM-labeled peptide substrate 1 μM, rt 3 h; read-out: β5c subunit IC50.
Test [3] has as its target immunoproteasome LMP7/B5i subunit (Homo sapiens, UniProt P28062). Put plainly: Caliper-based proteasome enzymatic activity assay, LMP7. The conditions noted are these: human recombinant immunoproteasome 0.3 nM, FAM-labeled peptide substrate 1 μM, rt 3 h; read-out: LMP7 subunit IC50.

Turning to `CC(C)C=C(C#N)C(=O)NCCCC[C@H](NC(=O)c1cnccn1)C(=O)N[C@@H](CC(C)C)B(O)O` [Example 2, ((R)-1-((S)-6-(2-cyano-4-methylpent-2-enamido)-2-(pyrazine-2-carboxamido)hexanamido)-3-methylbutyl)boronic acid], the IC50 turned out to be 46.3 nM in test [1], 8.5 nM in test [2] and 12.8 nM in test [3].

As for `CC(C)C=C(C#N)C(=O)NCCCC[C@H](NC(=O)c1cnccn1)C(=O)N[C@@H](Cc1ccccc1)B(O)O` [Example 5, ((R)-1-((S)-6-(2-cyano-4-methylpent-2-enamido)-2-(pyrazine-2-carboxamido)hexanamido)-2-phenylethyl)boronic acid], the IC50 was found to be 115 nM in test [1], 27.4 nM in test [2] and 12.3 nM in test [3].

With `CC(C)C=C(C#N)C(=O)NCCCC[C@H](NC(=O)c1cccc(O)n1)C(=O)N[C@@H](Cc1ccccc1)B(O)O` [Example 6, ((R)-1-((S)-6-(2-cyano-4-methylpent-2-enamido)-2-(6-hydroxypicolinamido)hexanamido)-2-phenylethyl)boronic acid], the results for the IC50 in test [1], in test [2] and in test [3] were 82.7 nM, 38.5 nM and 12.9 nM, respectively.

Consider `CC(C)C=C(C#N)C(=O)N1CCCC[C@@H]1CNC(=O)N[C@@H](Cc1ccccc1)B(O)O` [Example 33, ((R)-1-(3-(((R)-1-(2-cyano-4-methylpent-2-enoyl)piperidin-2-yl)methyl)ureido)-2-phenylethyl)boronic acid], for which the IC50 in test [1], in test [2] and in test [3] was above 5000 nM throughout.

Take `CC(C)C=C(C#N)C(=O)N1CCC[C@H]1CNC(=O)N[C@@H](Cc1ccccc1)B(O)O` [Example 34, ((R)-1-(3-(((S)-1-(2-cyano-4-methylpent-2-enoyl)pyrrolidin-2-yl)methyl)ureido)-2-phenylethyl)boronic acid]: the IC50 is above 5000 nM in test [1], above 5000 nM in test [2] and 231 nM in test [3].

For the molecule `CC(C)C=C(C#N)C(=O)N1CCCC[C@H]1CNC(=O)N[C@@H](Cc1ccccc1)B(O)O` [Example 35, ((R)-1-(3-(((S)-1-(2-cyano-4-methylpent-2-enoyl)piperidin-2-yl)methyl)ureido)-2-phenylethyl)boronic acid], the concentration for half-maximal inhibition (IC50) is above 5000 nM in test [1], above 5000 nM in test [2] and 611 nM in test [3].

For the molecule `C=CC(=O)N1CCC[C@@H]1CNC(=O)N[C@@H](Cc1ccccc1)B(O)O` [Example 36, ((R)-1-(3-(((R)-1-acryloylpyrrolidin-2-yl)methyl)ureido)-2-phenylethyl)boronic acid], the IC50 in test [1] is above 5000 nM; in test [2], above 5000 nM; in test [3], 1140 nM.

With `C=CC(=O)N1CCC[C@H]1CNC(=O)N[C@@H](Cc1ccccc1)B(O)O` [Example 37, ((R)-1-(3-(((S)-1-acryloylpyrrolidin-2-yl)methyl)ureido)-2-phenylethyl)boronic acid], the IC50 in test [1] was above 5000 nM; in test [2], above 5000 nM; in test [3], 4530 nM.

On to `C=CC(=O)N1CCCC[C@H]1CNC(=O)N[C@@H](Cc1ccccc1)B(O)O` [Example 38, ((R)-1-(3-(((S)-1-acryloylpiperidin-2-yl)methyl)ureido)-2-phenylethyl)boronic acid], for which the IC50 in test [1], in test [2] and in test [3] was above 5000 nM throughout.

As for `C[C@@H]1CN(C(C)(C)C=C(C#N)C(=O)N2CCCC[C@@H](OC(=O)N[C@@H](Cc3ccccc3)B(O)O)C2)C[C@@H](C)O1` [Example 129], the values for the IC50 in test [2] and in test [3] were 734 nM and 2.7 nM, respectively.

Consider `C[C@H]1CN(C(C)(C)C=C(C#N)C(=O)N2CCCC[C@@H](OC(=O)N[C@@H](Cc3ccccc3)B(O)O)C2)CCO1` [Example 130, ((R)-1-(((((R)-1-(2-cyano-4-methyl-4-((S)-2-methylmorpholino)pent-2-enoyl)azepan-3-yl)oxy)carbonyl)amino)-2-phenylethyl)boronic acid], for which the IC50 came out at 2040 nM in test [2] and 2.8 nM in test [3].

Consider `C[C@@H]1CN(C(C)(C)C=C(C#N)C(=O)N2CCCC[C@@H](OC(=O)N[C@@H](Cc3ccccc3)B(O)O)C2)CCO1` [Example 131, ((R)-1-(((((R)-1-(2-cyano-4-methyl-4-((R)-2-methylmorpholino)pent-2-enoyl)azepan-3-yl)oxy)carbonyl)amino)-2-phenylethyl)boronic acid], for which the IC50 in test [2] stood at 1480 nM; in test [3], 2.6 nM.

Consider `CC(C)(C=C(C#N)C(=O)N1C2CCC1(COC(=O)N[C@@H](Cc1ccccc1)B(O)O)CC2)N1CC2CC(C1)O2` [Example 132, ((1R)-1-((((7-(4-(6-oxa-3-azabicyclo[3.1.1]heptan-3-yl)-2-cyano-4-methylpent-2-enoyl)-7-azabicyclo[2.2.1]heptan-1-yl)methoxy)carbonyl)amino)-2-phenylethyl)boronic acid], for which the IC50 in test [2] was 1080 nM; in test [3] it was 0.8 nM.

As to `CC(C)(C=C(C#N)C(=O)N1CCCC[C@@H](OC(=O)N[C@@H](Cc2ccccc2)B(O)O)C1)N1CCOC2(CC2)C1` [Example 133, ((R)-1-(((((R)-1-(2-cyano-4-methyl-4-(4-oxa-7-azaspiro[2.5]octan-7-yl)pent-2-enoyl)azepan-3-yl)oxy)carbonyl)amino)-2-phenylethyl)boronic acid], the IC50 in test [2] turned out to be 942 nM; in test [3], 1.4 nM.

Turning to `CC(C)(C=C(C#N)C(=O)N1CCCC[C@@H](OC(=O)N[C@@H](Cc2ccccc2)B(O)O)C1)N1CC2CC(C1)O2` [Example 134, ((1R)-1-(((((3R)-1-(4-(6-oxa-3-azabicyclo[3.1.1]heptan-3-yl)-2-cyano-4-methylpent-2-enoyl)azepan-3-yl)oxy)carbonyl)amino)-2-phenylethyl)boronic acid], the IC50 turned out to be 1010 nM in test [2] and 1.9 nM in test [3].

For the molecule `C=CC(=O)N1C[C@@H](F)[C@H](OC(=O)N[C@@H](Cc2ccc(F)cc2)B(O)O)C1` [Example 135, ((R)-1-(((((3R,4R)-1-acryloyl-4-fluoropyrrolidin-3-yl)oxy)carbonyl)amino)-2-(4-fluorophenyl)ethyl)boronic acid], the results for the IC50 in test [2] and in test [3] were 3320 nM and 18.2 nM, respectively.

As for `CC1(C)CN(C(C)(C)C=C(C#N)C(=O)N2CCCC[C@@H](OC(=O)N[C@@H](Cc3ccccc3)B(O)O)C2)CCO1` [Example 136, ((R)-1-(((((R)-1-(2-cyano-4-(2,2-dimethylmorpholino)-4-methylpent-2-enoyl)azepan-3-yl)oxy)carbonyl)amino)-2-phenylethyl)boronic acid], the values for the IC50 in test [2] and in test [3] were 1280 nM and 1.3 nM, respectively.

For the molecule `CC(C)(C=C(C#N)C(=O)N1CCCC[C@@H](OC(=O)N[C@@H](Cc2ccc(F)cc2)B(O)O)C1)N1CCOCC1` [Example 137, ((R)-1-(((((R)-1-(2-cyano-4-methyl-4-morpholinopent-2-enoyl)azepan-3-yl)oxy)carbonyl)amino)-2-(4-fluorophenyl)ethyl)boronic acid], the IC50 in test [2] came to 2080 nM; in test [3], 1.9 nM.

For `CC(C)(C=C(C#N)C(=O)N1CCCC[C@@H](OC(=O)N[C@@H](CC2=CCCC2)B(O)O)C1)N1CCOCC1` [Example 138, ((R)-1-(((((R)-1-(2-cyano-4-methyl-4-morpholinopent-2-enoyl)azepan-3-yl)oxy)carbonyl)amino)-2-(cyclopent-1-en-1-yl)ethyl)boronic acid], the IC50 in test [2] was above 5000 nM; in test [3], 1.2 nM.
